Laboratory results: ChEMBL document CHEMBL5500329, “Identification of dihydroquinolizinone derivatives with nitrogen heterocycle moieties as new anti-HBV agents” (Eur J Med Chem, 2024)

Experiments:
Hepatitis B virus [1] = experiment: Antiviral activity against Hepatitis B virus assessed as inhibition of HbeAg level; assay type: functional, organism-based
[2] = MRT (0 to infinity) in mouse at 10 mg/kg, po administered as single dose; assay type: ADME, organism-based; settings: in vivo
Hepatitis B virus [3] = experiment: Antiviral activity against Hepatitis B virus assessed as inhibition of HBV DNA production; assay type: functional, organism-based
[4] = Neurotoxicity in mouse HT-22 cells assessed as reduction in neurite length at 10 to 30 uM incubated for 24 to 48 hrs; assay type: toxicity, cell-based; settings: ht-22, 30 µM, dose lower 10 µM, time lower 24 hrs, dose upper 30 µM, time upper 48 hrs
[5] = AUC (0 to infinity) in mouse at 10 mg/kg, po administered as single dose; assay type: ADME, organism-based; settings: in vivo
Hepatitis B virus [6] = experiment: Antiviral activity against Hepatitis B virus assessed as inhibition of HbsAg level; assay type: functional, organism-based
[7] = Cmax in mouse at 10 mg/kg, po administered as single dose; assay type: ADME, organism-based; settings: in vivo
[8] = Neurotoxicity in PAPD7-knockout mouse HT-22 cells assessed as reduction in neurite length; assay type: toxicity, cell-based
HT-22 [9] = experiment: Cytotoxicity against mouse HT-22 cells assessed as reduction in cell viability at 30 uM; assay type: toxicity, cell-based; settings: ht-22, 30 µM
[10] = Neurotoxicity in PAPD5-knockout mouse HT-22 cells assessed as reduction in neurite length; assay type: toxicity, cell-based
[11] = Tmax in mouse at 10 mg/kg, po administered as single dose; assay type: ADME, organism-based; settings: in vivo
HT-22 [12] = experiment: Cytotoxicity against mouse HT-22 cells assessed as reduction in cell viability at 10 uM; assay type: toxicity, cell-based; settings: ht-22, 10 µM
[13] = Half-life in mouse at 10 mg/kg, po administered as single dose; assay type: ADME, organism-based; settings: in vivo
[14] = Cytotoxicity against mouse HT-22 cells assessed as cell viability at 30 uM relative to control; assay type: toxicity, cell-based; settings: read-out: Activity
[15] = Neurotoxicity in mouse DRG neuron assessed as reduction in neurite length at 10 uM incubated for 24 hrs; assay type: toxicity, cell-based
[16] = Neurotoxicity in mouse HT-22 cells assessed as reduction in neurite length at 30 uM incubated for 48 hrs; assay type: toxicity, cell-based; settings: ht-22, 48 h
[17] = Neurotoxicity in mouse HT-22 cells assessed as reduction in neurite length at 10 uM; assay type: toxicity, cell-based; settings: ht-22, 10 µM

Row | SMILES | IC50 (Hepatitis B virus [1]) | IC50 (Hepatitis B virus [3]) | IC50 (Hepatitis B virus [6]) | further results
1 | COCCCOc1cc2c(cc1OC)-c1cc(=O)c(C(=O)O)cn1[C@H](C(C)C)C2 | 91 nM | 86 nM | 5 nM | MRT inf [2]: 1.66 h; Activity [4]: Toxic; AUC(0-inf) [5]: 10800 ng·h/mL; Cmax [7]: 6630 ng/mL; Activity [8]: Toxic; Activity (HT-22 [9]): Non-Toxic; Activity [10]: Toxic; Tmax [11]: 0.42 h; Activity (HT-22 [12]): Non-Toxic; half-life [13]: 2.39 h
2 | COc1cc2c(cc1OC[C@@H]1CCCO1)C[C@@H](C(C)C)n1cc(C(=O)O)c(=O)cc1-2 | 0.6 nM | 0.6 nM | 0.6 nM | 
3 | COc1cc2c(cc1N1CCC3(C1)OCCO3)CC(C(C)C)n1cc(C(=O)O)c(=O)cc1-2 (stereo not drawn) | 38 nM | 7.6 nM | 1.8 nM | 
4 | COc1cc2c(cc1N1CCC3(CCOCC3)C1)CC(C(C)C)n1cc(C(=O)O)c(=O)cc1-2 (stereo not drawn) | 5 nM | < 1.6 nM | 0.6 nM | 
5 | COc1cc2c(cc1OCCCN1CCC3(C1)OCCO3)CC(C(C)C)n1cc(C(=O)O)c(=O)cc1-2 (stereo not drawn) | 319 nM | 47.3 nM | 33 nM | 
6 | COc1cc2c(cc1OCCCN1CCC3(C1)OCCO3)C[C@@H](C(C)C)n1cc(C(=O)O)c(=O)cc1-2 | 195 nM |  | 23 nM | viability at 30 µM [14]: 74.9%; Activity (HT-22 [12]): Non-Toxic
7 | COc1cc2c(cc1N1CCC3(CCOCC3)C1)C[C@H](C(C)C)n1cc(C(=O)O)c(=O)cc1-2 | 875 nM |  | 100 nM | 
8 | COc1cc2c(cc1N1CCC3(CCOC3)C1)CC(C(C)C)n1cc(C(=O)O)c(=O)cc1-2 (stereo not drawn) | 62 nM | 332 nM | 5 nM | 
9 | COc1cc2c(cc1OCCCN1CCC3(CCCO3)CC1)CC(C(C)C)n1cc(C(=O)O)c(=O)cc1-2 (stereo not drawn) | > 1000 nM | 217 nM | 62 nM | 
10 | COc1cc2c(cc1N1CCC3(CCN(C(=O)OC(C)(C)C)CC3)C1)CC(C(C)C)n1cc(C(=O)O)c(=O)cc1-2 (stereo not drawn) | 111 nM | 50 nM | 16 nM | 
11 | COc1cc2c(cc1N1CCC(C(=O)O)CC1)CC(C(C)C)n1cc(C(=O)O)c(=O)cc1-2 (stereo not drawn) | > 1000 nM | 405 nM | 1240 nM | 
12 | COc1cc2c(cc1N1CCC(C(F)(F)F)CC1)CC(C(C)C)n1cc(C(=O)O)c(=O)cc1-2 (stereo not drawn) | 204 nM | 80 nM | 30 nM | 
13 | COc1cc2c(cc1N1CCOCC1)CC(C(C)C)n1cc(C(=O)O)c(=O)cc1-2 (stereo not drawn) | 99 nM | 8 nM | 8 nM | 
14 | COc1cc2c(cc1N1CCC3(CC1)OCCO3)CC(C(C)C)n1cc(C(=O)O)c(=O)cc1-2 (stereo not drawn) | 87 nM | 0.5 nM | 12 nM | 
15 | COc1cc2c(cc1N1CCC3(C1)OCCO3)C[C@@H](C(C)C)n1cc(C(=O)O)c(=O)cc1-2 | 84 nM |  | 4 nM | Activity (HT-22 [9]): Non-Toxic; Activity (HT-22 [12]): Non-Toxic
16 | COc1cc2c(cc1OCCCN1CCC3(C1)OCCO3)C[C@H](C(C)C)n1cc(C(=O)O)c(=O)cc1-2 | 856 nM |  | 189 nM | 
17 | COc1cc2c(cc1N1CCC3(C1)OCCO3)C[C@H](C(C)C)n1cc(C(=O)O)c(=O)cc1-2 | 668 nM |  | 126 nM | 
18 | COc1cc2c(cc1OCCCN1CCC3(CCOC3)C1)CC(C(C)C)n1cc(C(=O)O)c(=O)cc1-2 (stereo not drawn) | > 1000 nM | 31 nM | 193 nM | 
19 | COc1cc2c(cc1N1CCC(O)CC1)CC(C(C)C)n1cc(C(=O)O)c(=O)cc1-2 (stereo not drawn) | > 1000 nM | 300 nM | 41 nM | 
20 | COc1cc2c(cc1N1CCC3(CCOCC3)C1)C[C@@H](C(C)C)n1cc(C(=O)O)c(=O)cc1-2 | 71 nM |  | 5 nM | Activity (HT-22 [9]): Non-Toxic; Activity (HT-22 [12]): Non-Toxic
21 | COc1cc2c(cc1N1CCOCC1)C[C@H](C(C)C)n1cc(C(=O)O)c(=O)cc1-2 | > 1000 nM |  | 599 nM | 
22 | COc1cc2c(cc1N1CCOCC1)C[C@@H](C(C)C)n1cc(C(=O)O)c(=O)cc1-2 | 287 nM |  | 23 nM | Activity [15]: Non-Toxic; Activity [16]: Non-Toxic; MRT inf [2]: 2.69 h; AUC(0-inf) [5]: 23400 ng·h/mL; Cmax [7]: 7620 ng/mL; Activity (HT-22 [9]): Non-Toxic; Tmax [11]: 0.58 h; Activity (HT-22 [12]): Non-Toxic; Activity [17]: Non-Toxic; half-life [13]: 2.09 h
23 | COc1cc2c(cc1N1CCC3(CCCO3)CC1)CC(C(C)C)n1cc(C(=O)O)c(=O)cc1-2 (stereo not drawn) | 295 nM | 40 nM | 27 nM | 
24 | COc1cc2c(cc1OC1CCC3(CCOCC3)CC1)CC(C(C)C)n1cc(C(=O)O)c(=O)cc1-2 (stereo not drawn) | 47 nM | 38 nM | 151 nM | 
25 | COc1cc2c(cc1N1CC3COCC3C1)CC(C(C)C)n1cc(C(=O)O)c(=O)cc1-2 (stereo not drawn) | 236 nM | 64 nM | 14 nM | 
